According to patent EP4700027A1, “CRYSTALLINE FORM OF NITROGEN-CONTAINING TETRACYCLIC COMPOUND AND PREPARATION METHOD THEREFOR” (Jiangsu Hengrui Pharmaceuticals Co., Ltd., priority 2023, dated 2024):

Columns and labels:
[1] = system: MIA PaCa-2 cells; assay: MIA PaCa-2 cell proliferation assay (CellTiter-Glo); assay type: cell-based; details: Homo sapiens; inhibitory activity against MIA PaCa-2 cell proliferation, 72 h incubation
Method: The inhibitory activity of the compound of the present disclosure against MIA PaCa-2 cell proliferation was measured. Below is a brief description of the experimental method: MIA PaCa-2 cells (ATCC, CRL-1420) were cultured in DMEM/HIGH GLUCOSE medium (GE, SH30243.01) containing 10% fetal bovine serum (Corning, 35-076-CV) and 2.5% horse serum (Beyotime Biological Tech., C0262) (i.e., complete medium). On the first day of the experiment, MIA PaCa-2 cells were seeded into a 96-well plate at a density of 500 cells/well using complete medium, with 90 µL of cell suspension per well, and the plate was incubated overnight in a 5% CO2 cell incubator at 37 °C. On the second day, the test compound, prepared in complete medium and serially diluted, was added at 10 µL/well. The final concentrations of the compound were 9 concentration points obtained by a 5-fold serial dilution from 10 µM. A blank control containing 0.5% DMSO was set up. The plate was incubated for 72 h in a 5% CO2 cell incubator at 37 °C. […] After the plate was left to stand at room temperature for 10 min, the luminescence signal values were measured using a multifunctional microplate reader (PerkinElmer, EnVision2015). The IC50 value for the inhibitory activity of the compound was calculated using Graphpad Prism software. […]

[2] = system: H358 cells; assay: H358 cell proliferation assay (CellTiter-Glo); assay type: cell-based; details: Homo sapiens, NCI-H358; inhibitory activity against H358 cell proliferation, 120 h incubation
Method: The inhibitory activity of the compound of the present disclosure against H358 cell proliferation was measured. Below is a brief description of the experimental method: H358 cells (ATCC, CRL-5807) were cultured in RPMI1640 medium (Hyclone, SH30809.01) containing 10% fetal bovine serum (Corning, 35-076-CV) (i.e., complete medium). On the first day of the experiment, H358 cells were seeded into a 96-well plate at a density of 1200 cells/well using complete medium, with 100 µL of cell suspension per well, and the plate was incubated overnight in a 5% CO2 cell incubator at 37 °C. On the second day, the test compound, prepared in complete medium and serially diluted, was added at 10 µL/well. The final concentrations of the compound were 9 concentration points obtained by a 5-fold serial dilution from 10 µM. A blank control containing 0.5% DMSO was set up. The plate was incubated for 120 h in a 5% CO2 cell incubator at 37 °C. On the seventh day, the 96-well cell plate was removed from the incubator, and Cell Titer-Glo® Luminescent Cell Viability Assay (Promega, G7573) was added at 50 µL/well. After the plate was left to stand at room temperature for 10 min, the luminescence signal values were measured using a multifunctional microplate reader (PerkinElmer, EnVision® 2105), and the IC50 value for the inhibitory activity of the compound was calculated using Graphpad Prism software. Table 1. […]

[3] = Influencing factor stability study on crystal forms (light, high temperature, high humidity, 30 days); assay type: physicochemical
[4] = Dynamic vapor sorption (DVS) hygroscopicity testing; assay type: physicochemical
Source text: According to the description of hygroscopicity characteristics and the definitions of hygroscopic weight gains in "General Rule 9103, Guidelines for Hygroscopicity Trials for Pharmaceuticals" in the Chinese Pharmacopoeia, Volume IV, 2015 Edition, • deliquescent: sufficient water is absorbed to form a liquid; • extremely hygroscopic: the hygroscopic weight gain is not less than 15%; • hygroscopic: the hygroscopic weight gain is less than 15% but not less than 2%; • slightly hygroscopic: the hygroscopic weight gain is less than 2% but not less than 0.2%; nonhygroscopic or practically nonhygroscopic: the hygroscopic weight gain is less than 0.2%.
DVS refers to dynamic vapor sorption: The analysis was performed using SMS DVS Advantage; at 25 °C, the humidity was changed as follows: 50%-95%-0%-95%-50%, in steps of 10% (5% for the last step) (specific humidity ranges are shown in corresponding patterns, and those listed here were used in most cases); the criterion was dm/dt being not greater than 0.002%.

[5] = Light exposure (4500 Lux), 7 days
[6] = Light exposure (4500 Lux), 14 days
[7] = Light exposure (4500 Lux), 30 days

An IC50 [1] of 280 pM and an IC50 [2] of 740 pM were found for `C=CC(=O)N1CCN2C(=O)c3cc(F)c(-c4ccc(F)c5sc(N)c(C#N)c45)c4c(Cl)nn(c34)CC[C@H]2C1` (atropisomer, axis not shown) [Compound 1, (S)-4-((S)-10-acryloyl-4-chloro-2-fluoro-14-oxo-8,8a,9,10,11,12-hexahydro-7H,14H-pyrazino[1',2':5,6][1,5]diazocino[3,2,1-hi]indazol-3-yl)-2-amino-7-fluorobenzo[b]thiophene-3-carbonitrile] in this work.

With `C=CC(=O)N1CCN2C(=O)c3cc(F)c(-c4ccc(F)c5sc(N)c(C#N)c45)c4c(Cl)nn(c34)CC[C@H]2C1` [crystal form G] the Color and state ([3]; 40 °C, 7 days) was “Off-white solid”, the Crystal form ([3]; 40 °C, 7 days) was “Did not change” and the “Purity (%)” value ([3]; 40 °C, 7 days) was 98.2%. The Color and state ([3]; 40 °C, 14 days) was “Off-white solid”, the Crystal form ([3]; 40 °C, 14 days) was “Did not change” and the “Purity (%)” value ([3]; 40 °C, 14 days) was 97.8%. The Color and state ([3]; 40 °C, 30 days) was “Off-white solid”, the Crystal form ([3]; 40 °C, 30 days) was “Did not change” and the “Purity (%)” value ([3]; 40 °C, 30 days) was 97.7%. For the same compound, the Color and state ([3]; 60 °C, 7 days) was “Off-white solid”, the Crystal form ([3]; 60 °C, 7 days) was “Did not change” and the “Purity (%)” value ([3]; 60 °C, 7 days) was 98.3%. The Color and state ([3]; 60 °C, 14 days) was “Off-white solid”, the Crystal form ([3]; 60 °C, 14 days) was “Did not change” and the “Purity (%)” value ([3]; 60 °C, 14 days) was 98.1%. The Color and state ([3]; 60 °C, 30 days) was “Off-white solid”, the Crystal form ([3]; 60 °C, 30 days) was “Did not change” and the “Purity (%)” value ([3]; 60 °C, 30 days) was 98.1%. For the same compound, the Color and state ([3]; 75% RH, 7 days) was “Off-white solid”, the Crystal form ([3]; 75% RH, 7 days) was “Did not change” and the “Purity (%)” value ([3]; 75% RH, 7 days) was 98.5%. The Color and state ([3]; 75% RH, 14 days) was “Off-white solid”, the Crystal form ([3]; 75% RH, 14 days) was “Did not change” and the “Purity (%)” value ([3]; 75% RH, 14 days) was 98.5%. The Color and state ([3]; 75% RH, 30 days) was “Off-white solid”, the Crystal form ([3]; 75% RH, 30 days) was “Did not change” and the “Purity (%)” value ([3]; 75% RH, 30 days) was 98.5%. For the same compound, the Color and state ([3]; 92.5% RH, 7 days) was “Off-white solid”, the Crystal form ([3]; 92.5% RH, 7 days) was “Did not change” and the “Purity (%)” value ([3]; 92.5% RH, 7 days) was 98.5%. For the same compound, the Color and state ([3]; 92.5% RH, 14 days) was “Off-white solid”, the Crystal form ([3]; 92.5% RH, 14 days) was “Did not change” and the “Purity (%)” value ([3]; 92.5% RH, 14 days) was 98.5%. The Color and state ([3]; 92.5% RH, 30 days) was “Off-white solid”, the Crystal form ([3]; 92.5% RH, 30 days) was “Did not change” and the “Purity (%)” value ([3]; 92.5% RH, 30 days) was 98.5%. The Color and state ([3]; Initial, 0 days) was “Off-white solid”, the Crystal form ([3]; Initial, 0 days) was “Crystal form G” and the “Purity (%)” value ([3]; Initial, 0 days) was 98.5%. For the same compound, the Color and state [3, 5] was “Off-white solid”, the Crystal form [3, 5] was “Did not change” and the “Purity (%)” value [3, 5] was 98.5%. The Color and state [3, 6] was “Off-white solid”, the Crystal form [3, 6] was “Did not change” and the “Purity (%)” value [3, 6] was 98.4%. The Color and state [3, 7] was “Off-white solid”, the Crystal form [3, 7] was “Did not change” and the “Purity (%)” value [3, 7] was 98.3%. The hygroscopic weight gain ([4]; accelerated experimental conditions (70% RH)) was “about 1.21%”, the “crystal form re-identified after DVS testing” value ([4]; after DVS testing) was “did not change” and the hygroscopic weight gain ([4]; extreme conditions (90% RH)) was “about 1.60%”. The “desorption process of the sample versus its adsorption process” value ([4]; humidity changing from 0% to 95% RH) was “substantially overlapped” and the hygroscopic weight gain ([4]; normal storage conditions (25 °C and 60% RH)) was “about 1.04%”.
